Assay results reported in patent publication US8957097B2, “Hemi-phorboxazole A derivatives and methods of their use” (The Trustees Of The University Of Pennsylvania, priority 2009, dated 2015).
Values after ≈ are worked out from the molar mass of the structure shown. Read-outs that look alike come from different tables or passages of the source.

Columns and labels:
[1] = test system: C. albicans 96-489; assay: antifungal microbroth dilution assay, C. albicans 96-489; format: cell-based, Candida albicans
Description: (§1) Tests of antifungal activity in microbroth dilution assay against pathogenic Candida strains was performed according to known methods. (National Committee for Clinical Laboratory Standards, 2002. Reference method for broth dilution antifungal susceptibility testing of yeast, 2nd ed. Approved standard M27-A2. National Committee for Clinical Laboratory Standards, Wayne, Pa.). For strains see: Mulder, R. J.; Shafer, C. M.; Dalisay, D. S.; Molinski, T. F. Bioorg. Med. Chem. Lett. 2009, 19, 2928-2930.

[2] = test system: SK-BR-3 Breast; assay: tumor cell growth inhibitory activity, SK-BR-3 breast; format: cell-based, human; settings: for IC50: Homo sapiens
Description: (§2) Compounds of the invention were assayed for tumor cell growth inhibitory activity, in parallel with (+) phorboxazole A (1) hemi-phorboxazole A (3).

[3] = test system: HCT-116 Colon; assay: tumor cell growth inhibitory activity, HCT-116 colon; format: cell-based, human; settings: for IC50: Homo sapiens
Description: as §2

[4] = test system: C. albicans ACTCC 14503; assay: antifungal microbroth dilution assay, C. albicans ACTCC 14503; format: cell-based, Candida albicans; settings: for MIC: Candida albicans
Description: as §1

[5] = test system: C. albicans UCD-FR1; assay: antifungal microbroth dilution assay, C. albicans UCD-FR1; format: cell-based, Candida albicans; settings: for MIC: Candida albicans
Description: as §1

[6] = test system: National Cancer Institute's panel of 60 human tumor cell lines; settings: mean over NCI panel of 60 human tumor cell lines; cited from earlier work
[7] = Table 5, HCT-116 colon tumor cells
[8] = Table 6, HCT-116 colon tumor cells
[9] = Table 6, SK-BR-3 breast tumor cells

SMILES | C. albicans 96-489 MIC ([1]; Table 8, microbroth dilution) [µg/mL] | HCT-116 Colon IC50 [3, 8] [µg/mL] | C. albicans ACTCC 14503 MIC ([4]; Table 8, microbroth dilution) [µg/mL] | C. albicans UCD-FR1 MIC ([5]; Table 8, microbroth dilution) [µg/mL] | also measured
C=C1C[C@@H]2C[C@@H]3CCO[C@@H](O3)c3coc(n3)/C=C/C[C@H]3O[C@@H](/C(C)=C/C#N)[C@H](C)[C@@H](OC(=O)/C=C\C[C@@H](C1)O2)[C@H]3C [Compound (Z, E)-5] |  |  |  |  | C. albicans 96-489 MIC ([1]; Table 7, microbroth dilution): >64 µg/mL; SK-BR-3 Breast IC50 ([2]; Table 5, SK-BR-3 breast tumor cells): >6.2 µg/mL; HCT-116 Colon IC50 [3, 7]: >6.2 µg/mL; C. albicans ACTCC 14503 MIC ([4]; Table 7, microbroth dilution): 16 µg/mL; C. albicans UCD-FR1 MIC ([5]; Table 7, microbroth dilution): 16 µg/mL
C=C1C[C@@H]2C[C@@H]3CCO[C@@H](O3)c3cccc(c3)/C=C\C[C@H]3O[C@@H](/C(C)=C/C#N)[C@H](C)[C@@H](OC(=O)/C=C/C[C@@H](C1)O2)[C@H]3C [Compound (E, Z)-6] | >64 | >6.25 | >64 | >64 | 
C=C1C[C@@H]2C[C@@H]3CCO[C@@H](O3)c3cccc(c3)/C=C/C[C@H]3O[C@@H](/C(C)=C/C#N)[C@H](C)[C@@H](OC(=O)/C=C\C[C@@H](C1)O2)[C@H]3C [Compound (Z, E)-6] |  | 0.207 |  |  | SK-BR-3 Breast IC50 [2, 9]: 0.258 µg/mL
C=C1C[C@@H]2C[C@@H]3CCO[C@@H](O3)c3cccc(c3)/C=C/C[C@H]3O[C@@H](/C(C)=C/C#N)[C@H](C)[C@@H](OC(=O)/C=C/C[C@@H](C1)O2)[C@H]3C [Compound (E, E)-6] | >64 | >6.25 | >64 | >64 | 
C=C1C[C@@H]2C[C@@H]3CCO[C@@H](O3)c3cccc(c3)/C=C\C[C@H]3O[C@@H](/C(C)=C/I)[C@H](C)[C@@H](OC(=O)/C=C/C[C@@H](C1)O2)[C@H]3C [Compound (E, Z)-24] | >64 | >6.25 | >64 | >64 | 
C=C1C[C@@H]2C[C@@H]3CCO[C@@H](O3)c3coc(n3)/C=C/C[C@H]3O[C@@H](/C(C)=C/I)[C@H](C)[C@@H](OC(=O)/C=C\C[C@@H](C1)O2)[C@H]3C [Compound (Z, E)-15] |  |  |  |  | C. albicans 96-489 MIC ([1]; Table 7, microbroth dilution): >64 µg/mL; HCT-116 Colon IC50 [3, 7]: >6.25 µg/mL; C. albicans ACTCC 14503 MIC ([4]; Table 7, microbroth dilution): >64 µg/mL; C. albicans UCD-FR1 MIC ([5]; Table 7, microbroth dilution): >64 µg/mL
C=C1C[C@@H]2C[C@@H]3CCO[C@@H](O3)c3cccc(c3)/C=C/C[C@H]3O[C@@H](/C(C)=C/c4ncco4)[C@H](C)[C@@H](OC(=O)/C=C\C[C@@H](C1)O2)[C@H]3C [Compound 27] | 32 | 5.44 | 4 | 8 | 
C=C1C[C@@H]2C[C@@H]3CCO[C@@H](O3)c3cccc(c3)/C=C/C[C@H]3O[C@@H](/C(C)=C/I)[C@H](C)[C@@H](OC(=O)/C=C\C[C@@H](C1)O2)[C@H]3C [Compound (Z, E)-24] | >64 | >6.25 | >64 | >64 | 
C=C1C[C@@H]2C[C@H]3C[C@@H](O)C[C@H](O3)c3coc(n3)/C=C\C[C@H]3O[C@@H](/C(C)=C/c4coc(C[C@]5(O)C[C@H](OC)C[C@H]([C@H](O)/C=C(C)/C=C/[C@@H](C/C=C/Br)OC)O5)n4)[C@H](C)[C@@H](OC(=O)/C=C\C[C@@H](C1)O2)[C@H]3C [Compound 2, Phorboxazole B] |  |  |  |  | GI50 [6]: 1.58 nM
C=C1C[C@@H]2C[C@@H]3CCO[C@@H](O3)c3cccc(c3)/C=C/C[C@H]3O[C@@H](/C(C)=C/I)[C@H](C)[C@@H](OC(=O)/C=C/C[C@@H](C1)O2)[C@H]3C [Compound (E, E)-24] | >64 | >6.25 | >64 | >64 | 
C=C1C[C@@H]2C[C@@H]3CCO[C@@H](O3)c3coc(n3)/C=C/C[C@H]3O[C@@H](/C(C)=C/I)[C@H](C)[C@@H](OC(=O)/C=C/C[C@@H](C1)O2)[C@H]3C [Compound (E, E)-15] |  |  |  |  | C. albicans 96-489 MIC ([1]; Table 7, microbroth dilution): >64 µg/mL; HCT-116 Colon IC50 [3, 7]: >6.25 µg/mL; C. albicans ACTCC 14503 MIC ([4]; Table 7, microbroth dilution): >64 µg/mL; C. albicans UCD-FR1 MIC ([5]; Table 7, microbroth dilution): >64 µg/mL
C=C1C[C@@H]2C[C@@H]3C[C@@H](O)C[C@@H](O3)c3coc(n3)/C=C/C[C@H]3O[C@@H](/C(C)=C/c4coc(C[C@]5(O)C[C@H](OC)C[C@H]([C@H](O)/C=C(C)/C=C/[C@@H](C/C=C/Br)OC)O5)n4)[C@H](C)[C@@H](OC(=O)/C=C\C[C@@H](C1)O2)[C@H]3C [Phorboxazole A] | 1.0 | 0.00071 | 1.0 | 2.0 | MIC ([1]; Candida albicans, 96489, Table 7, microbroth dilution, read-out: C. albicans 96-489 MIC): 1 µg/mL (≈ 0.977 µM); IC50 ([2]; Table 5, SK-BR-3 breast tumor cells, read-out: SK-BR-3 Breast IC50): 0.002 µg/mL (≈ 0.00195 µM); IC50 ([3]; Table 5, HCT-116 colon tumor cells, read-out: HCT-116 Colon IC50): 0.00071 µg/mL (≈ 0.000693 µM); MIC ([4]; ACTCC14503, Table 7, microbroth dilution, read-out: C. albicans ACTCC 14503 MIC): 1 µg/mL (≈ 0.977 µM); MIC ([5]; UCDFR1, Table 7, microbroth dilution, read-out: C. albicans UCD-FR1 MIC): 2 µg/mL (≈ 1.95 µM); GI50 [6]: 1.58 nM
C=C1C[C@@H]2C[C@@H]3CCO[C@@H](O3)c3cccc(c3)/C=C/C[C@H]3O[C@@H](/C(C)=C/c4cccs4)[C@H](C)[C@@H](OC(=O)/C=C\C[C@@H](C1)O2)[C@H]3C [Compound 28] | 32 | 5.96 | 8 | 16 | 
C=C1C[C@@H]2C[C@@H]3C[C@@H](O)C[C@@H](O3)c3coc(n3)/C=C/C[C@H]3O[C@@H](/C(C)=C/C#N)[C@H](C)[C@@H](OC(=O)/C=C\C[C@@H](C1)O2)[C@H]3C [HEMI-PHORBOXAZOLE A, Hemi-Phorboxazole A] | >64 | >6.2 | >64 | >64 | MIC ([1]; Candida albicans, 96489, read-out: C. albicans 96-489 MIC): > 64 µg/mL; IC50 ([2]; SK-BR-3, read-out: SK-BR-3 Breast IC50): > 6.2 µg/mL; SK-BR-3 Breast IC50 [2, 9]: >6.2 µg/mL; IC50 ([3]; HCT-116, read-out: HCT-116 Colon IC50): > 6.2 µg/mL; MIC ([4]; ACTCC14503, read-out: C. albicans ACTCC 14503 MIC): > 64 µg/mL; MIC ([5]; UCDFR1, read-out: C. albicans UCD-FR1 MIC): > 64 µg/mL
C=C1C[C@@H]2C[C@@H]3CCO[C@@H](O3)c3coc(n3)/C=C/C[C@H]3O[C@@H](/C(C)=C/C#N)[C@H](C)[C@@H](OC(=O)/C=C/C[C@@H](C1)O2)[C@H]3C [Compound (E, E)-5] |  |  |  |  | C. albicans 96-489 MIC ([1]; Table 7, microbroth dilution): 32 µg/mL; HCT-116 Colon IC50 [3, 7]: 1.54 µg/mL; C. albicans ACTCC 14503 MIC ([4]; Table 7, microbroth dilution): 4 µg/mL; C. albicans UCD-FR1 MIC ([5]; Table 7, microbroth dilution): 8 µg/mL
